Drawing on US20240197726A1, “NOVEL TETRAHYDROISOQUINOLINE ALKALOID COMPOUND CONTAINING MACROCYCLE” (THE UNIVERSITY OF TOKYO, priority 2021, published 2024), this text covers GI50 and antitumor activity for 2 compounds.

Structures are written as SMILES. Like-named read-outs stand apart in the source and are kept apart here.

Common to all, as to type: cell-based
One experiment deals with OVCAR-3 cancer cells. The experiment in a line: antitumor activity, sulforhodamine B cell growth assay, OVCAR-3. To be noted: OVCAR-3, drug exposure 48 hours; read-out: GI50 value: 50% growth inhibitory concentration. The protocol: (§1) The THIQ compound containing a macrocyclic structure of the present invention was administered to various cancer cell lines, and the antitumor activity (Go value) was observed. Specifically, verification was performed according to the literature (Yamori, T.; Matsunaga, A.; Sato, S.; Yamazaki, K.; Komi, A.; Ishizu, K. et al. Cancer Res. 1999, 59, 4042) by the following procedure.
(§2) Cells were plated at an appropriate density in a 96-well plate in RPMI 1640 together with 5% fetal bovine serum, and adhered overnight. The cells were exposed to a drug for 48 hours. Then, according to the sulforhodamine B assay described by Skehan et al (Skehan P., Storeng R., Scudiero D., Monks A., McMahon J., Vistica D., Warren J. T., Bokesch H., Kenney S., Boyd M. R. J Natl. Cancer Inst, 1990, 82, 1107-1112), the cell growth rate was measured. The absorbance of the control well (C) and the test well (T) was measured at 525 nm. In addition, the time at which the drug was added was set as time 0, and the absorbance for the test well (T0) was measured. Using these measured values, the cell growth inhibitory effect (% growth=PG) was calculated by the following formula at each concentration of the drug.
(§3) (T<T0): PG=100×[(T−T0)/T]
(§4) The PG values determined above for each cell line were plotted against the concentration (logarithm) on a semi-logarithmic graph, and summarized for each visceral cancer. Concentrations at which the dose-response curve of each cell line crossed the horizontal line of PG=50%, 0%, or −50% were calculated. These concentrations were defined as Log GI50, Log TGI, and Log LC50. Actually, using two data points of the drug concentration before and after crossing each horizontal line, the drug concentration (logarithmic value) at the intersection of the straight line connecting the two points and the horizontal line for each PG was calculated.

The test system of experiment [1] is SF-539 central nervous system cancer cells. As to the kind of experiment: antitumor activity, sulforhodamine B cell growth assay, SF-539. The note with it: SF-539, drug exposure 48 hours; read-out: GI50 value: 50% growth inhibitory concentration. The protocol:
as §1, §2, §3, §4

Experiment [2] concerns HCT-15 colorectal cancer cells. As to the kind of experiment: antitumor activity, sulforhodamine B cell growth assay, HCT-15. To be noted: HCT-15, drug exposure 48 hours; read-out: GI50 value: 50% growth inhibitory concentration. The protocol: as §1, §2, §3, §4
For experiment [3], the system named is MKN1 gastric cancer cells. The experiment in a line: antitumor activity, sulforhodamine B cell growth assay, MKN1. To be noted: MKN1, drug exposure 48 hours; read-out: GI50 value: 50% growth inhibitory concentration. The protocol: as §1, §2, §3, §4
The subject of experiment [4] is SF-295 central nervous system cancer cells. As to the kind of experiment: antitumor activity, sulforhodamine B cell growth assay, SF-295. To be noted: SF-295, drug exposure 48 hours; read-out: GI50 value: 50% growth inhibitory concentration. The method, then: as §1, §2, §3, §4
The subject of experiment [5] is HBC-5 breast cancer cells. The experiment in a line: antitumor activity, sulforhodamine B cell growth assay, HBC-5. The note with it: HBC-5, drug exposure 48 hours, read-out: GI50 value: 50% growth inhibitory concentration. The protocol: as §1, §2, §3, §4
The subject of experiment [6] is MKN45 gastric cancer cells. As to the kind of experiment: antitumor activity, sulforhodamine B cell growth assay, MKN45. The note with it: MKN45, drug exposure 48 hours; read-out: GI50 value: 50% growth inhibitory concentration. The protocol: as §1, §2, §3, §4
Experiment [7] relates to various cancer cell lines. The experiment in a line: Verification of antitumor activity, whole panel of cancer cell lines. To be noted: in words, compared with Cyanosafracin B. The protocol: as §1, §2, §3, §4
Experiment [8] relates to MKN-A gastric cancer cells. As to the kind of experiment: antitumor activity, sulforhodamine B cell growth assay, MKN-A. To be noted: MKN-A, drug exposure 48 hours; read-out: GI50 value: 50% growth inhibitory concentration. The protocol:
as §1, §2, §3, §4

Experiment [9] concerns SF-268 central nervous system cancer cells. The experiment in a line: antitumor activity, sulforhodamine B cell growth assay, SF-268. The note with it: SF-268, drug exposure 48 hours; read-out: GI50 value: 50% growth inhibitory concentration. The method, then: as §1, §2, §3, §4
Experiment [10] deals with MKN-B gastric cancer cells. The experiment in a line: antitumor activity, sulforhodamine B cell growth assay, MKN-B. To be noted: MKN-B, drug exposure 48 hours; read-out: GI50 value: 50% growth inhibitory concentration. The protocol: as §1, §2, §3, §4
Experiment [11] deals with NCI-H522 lung cancer cells. The experiment in a line: antitumor activity, sulforhodamine B cell growth assay, NCI-H522. The note with it: NCI-H522, drug exposure 48 hours; read-out: GI50 value: 50% growth inhibitory concentration. The protocol: as §1, §2, §3, §4
In experiment [12] the test system is MDA-MB-231 breast cancer cells. The experiment in a line: antitumor activity, sulforhodamine B cell growth assay, MDA-MB-231. The note with it: MDA-MB-231, drug exposure 48 hours; read-out: GI50 value: 50% growth inhibitory concentration. The protocol:
as §1, §2, §3, §4

The test system of experiment [13] is OVCAR-5 cervical cancer cells. The experiment in a line: antitumor activity, sulforhodamine B cell growth assay, OVCAR-5. To be noted: OVCAR-5, drug exposure 48 hours; read-out: GI50 value: 50% growth inhibitory concentration. The method, then: as §1, §2, §3, §4
Experiment [14] relates to HCC2998 colorectal cancer cells. As to the kind of experiment: antitumor activity, sulforhodamine B cell growth assay, HCC2998. To be noted: HCC2998, drug exposure 48 hours; read-out: GI50 value: 50% growth inhibitory concentration. The protocol: as §1, §2, §3, §4
In the next experiment the test system is OVCAR-4 cancer cells. As to the kind of experiment: antitumor activity, sulforhodamine B cell growth assay, OVCAR-4. The note with it: OVCAR-4, drug exposure 48 hours; read-out: GI50 value: 50% growth inhibitory concentration. The protocol:
as §1, §2, §3, §4

Experiment [15] relates to HBC-4 breast cancer cells. The experiment in a line: antitumor activity, sulforhodamine B cell growth assay, HBC-4. To be noted: HBC-4, drug exposure 48 hours; read-out: GI50 value: 50% growth inhibitory concentration. The method, then: as §1, §2, §3, §4
The subject of the next experiment is SK-OV-3 cancer cells. The experiment in a line: antitumor activity, sulforhodamine B cell growth assay, SK-OV-3. The note with it: SK-OV-3, drug exposure 48 hours; read-out: GI50 value: 50% growth inhibitory concentration. The protocol: as §1, §2, §3, §4
A further experiment concerns ACHN kidney cancer cells. The experiment in a line: antitumor activity, sulforhodamine B cell growth assay, ACHN. The note with it: ACHN, drug exposure 48 hours; read-out: GI50 value: 50% growth inhibitory concentration. The method, then:
as §1, §2, §3, §4

For experiment [16], the system named is NCI-H226 lung cancer cells. The experiment in a line: antitumor activity, sulforhodamine B cell growth assay, NCI-H226. To be noted: NCI-H226, drug exposure 48 hours; read-out: GI50 value: 50% growth inhibitory concentration. The protocol: as §1, §2, §3, §4
Experiment [17] relates to NCI-H23 lung cancer cells. As to the kind of experiment: antitumor activity, sulforhodamine B cell growth assay, NCI-H23. To be noted: NCI-H23, drug exposure 48 hours; read-out: GI50 value: 50% growth inhibitory concentration. The protocol: as §1, §2, §3, §4
The test system of experiment [18] is SNB-78 central nervous system cancer cells. As to the kind of experiment: antitumor activity, sulforhodamine B cell growth assay, SNB-78. The note with it: SNB-78, drug exposure 48 hours; read-out: GI50 value: 50% growth inhibitory concentration. The protocol: as §1, §2, §3, §4

With `C=C1/C=C/CN[C@@H](C)C(=O)NCC2c3c(c(c(C)c4c3OCO4)OC1)C[C@H]1[C@H]3c4c(cc(C)c(OC)c4O)C[C@@H]([C@H](C#N)N21)N3C` [Compound 33], the GI50 in the experiment with OVCAR-3 cancer cells was determined as 70 nM; in experiment [1], 46 nM; in experiment [2] it was 400 nM; in experiment [3] it was 68 nM; in [4], 270 nM; in experiment [5], 40 nM. Further, the GI50 in experiment [6] was found to be 41 nM; in [8] it was 330 nM; in [9], 110 nM; in [10] it was 220 nM; in [11], 25 nM; in experiment [12], 52 nM. The GI50 in experiment [13] was determined as 310 nM; in [14], 140 nM; in the experiment with OVCAR-4 cancer cells, 400 nM; in [15], 32 nM; in the experiment on SK-OV-3 cancer cells, 500 nM; in the experiment with ACHN kidney cancer cells, 260 nM. For the same compound, the figures for the GI50 in experiment [16], in experiment [17] and in [18] were 260 nM, 93 nM and 83 nM, respectively. Further, the antitumor activity entry in [7] is “better antitumor activity than Cyanosafracin B”.
Regarding `COC1=C(C)C(=O)C2=C(C1=O)[C@H](CNC(=O)[C@H](C)N)N1C(C2)[C@H]2c3c(cc(C)c(OC)c3O)C[C@@H]([C@@H]1C#N)N2C` (some centres unmarked) [Cyanosafracin B, reference compound], the GI50 in the experiment on OVCAR-3 cancer cells came out at 130 nM; in [1], 180 nM; in experiment [2] it was 390 nM; in experiment [3] it was 52 nM; in [4], 500 nM; in experiment [5] (listed as drawing 116) it was 82 nM. Moreover, the GI50 in [5] (listed as drawing 120) came to 62 nM; in experiment [6], 300 nM; in [8], 250 nM; in [9] it was 370 nM; in experiment [10], 170 nM; in experiment [11], 43 nM. The GI50 in experiment [12] turned out to be 130 nM; in [13], 390 nM; in [14], 350 nM; in the experiment on OVCAR-4 cancer cells, 290 nM; in experiment [15], 59 nM; with SK-OV-3 cancer cells, 540 nM. Besides, the GI50 in the experiment on ACHN kidney cancer cells turned out to be 320 nM; in experiment [16], 310 nM; in experiment [17], 290 nM; in [18], 63 nM.
